# Assay results as given in US20120141977A1, “HEPATITIS B VIRUS MUTATION STRAIN WITH RESISTANCE TO ADEFOVIR DIPIVOXIL AND THE USES THEREOF” (priority 2009, published 2012).
# Assays:
# [1] = tested on: HBV rtE218G mutant strain; experiment: Drug sensitivity test: HepG2 cells transiently transfected with rtE218G mutagenic HBV plasmid, intracellular replication intermediates by Southern blotting; format: cell-based, hepatitis B virus
# Protocol: (§1) After recovery, Human hepatoma cell strain HepG2 grew as the adherent monolayer cells in the DMEM medium with 10% fetal bovine serum at 37° C. in 5% CO2. Every 3 to 5 days, cells were passaged one generation in a ratio of 1:3. 24 hours before transfection, cells were inoculated in an appropriate amount (about 2×10^5 per well in a 6-well plate). Preferably, cell density was 40 to 60% for transfection (also, 80 to 90% as well). 1 hour before transfection, the medium was replaced with fresh complete culture medium (2 ml per well), and incubated at 37° C. in 5% CO2. To each well, for example, saline for injection was added to 2 μg of DNA to make a total volume of 100 μl, followed by mixing gently and standing at room temperature. Saline for injection was added to 2 μl of VigoFect to make a total volume of 100 μl, followed by mixing gently and standing at room temperature for 5 minutes. The diluted VigoFect was added to the diluted DNA solution dropwise, mixed gently, followed by keeping the resultant working solution for transfection stand at room temperature for 15 minutes. The transfection working solution was mixed gently and 2 ml of medium was added thereto dropwise, mixed gently and then incubated at 37° C. in 5% CO2. 2 days after transfection, the medium was replaced and ADV were added thereto with the final concentrations of 0, 0.01, 0.1, 1, 5, 10 and 20 μM. […]
# HBV wild strain = experiment: Drug sensitivity test: HepG2 cells transiently transfected with wild-type HBV plasmid, intracellular replication intermediates by Southern blotting; format: cell-based; settings: Hepatitis B virus, 168 h, HBV replication intermediates in cytoplasm, Southern blotting gray values, treated 7 days, read-out: half maximal inhibitory concentration (IC50) for the wild strain
# Protocol: as §1
# [2] = tested on: rtL180M +M204V and rtN236T; settings: cited from earlier work
compound,measurement,setting,value
Nc1ncnc2c1ncn2CCOCP(=O)(O)O [adefovir],IC50,"[1]; Hepatitis B virus, 168 h, HepG2 cells, HBV replication intermediates in cytoplasm, Southern blotting gray values, treated 7 days, read-out: half maximal inhibitory concentration (IC50) for the rtE218G mutant strain",9.3 µM
same,IC50 of rtE218G mutant strain relative to that of the wild strain,[1]; ratio mutant IC50 / wild IC50,5.5 times
same,IC50,HBV wild strain,1.7 µM
same,decrease of sensitivity of combined three mutations compared with rtN236T single mutation,[2],2 folds
